According to US20230265151A1, “GIP/GLP1 CO-AGONIST COMPOUNDS” (priority 2020, published 2023):
Read-outs that look alike come from different tables or passages of the source.

Experiments:
Assay type in all cases: cell-based
[1] = target: T1, hGIPR (Homo sapiens, UniProt P48546); assay: Functional cAMP formation (HTRF) in HEK-293 clonal cells expressing hGIPR, 0.1% bovine casein, without or with 1.0% human serum albumin; details: for EC50: geometric mean
T1 construct: expressed in transfected cells
T1 sequence (P48546 22-466): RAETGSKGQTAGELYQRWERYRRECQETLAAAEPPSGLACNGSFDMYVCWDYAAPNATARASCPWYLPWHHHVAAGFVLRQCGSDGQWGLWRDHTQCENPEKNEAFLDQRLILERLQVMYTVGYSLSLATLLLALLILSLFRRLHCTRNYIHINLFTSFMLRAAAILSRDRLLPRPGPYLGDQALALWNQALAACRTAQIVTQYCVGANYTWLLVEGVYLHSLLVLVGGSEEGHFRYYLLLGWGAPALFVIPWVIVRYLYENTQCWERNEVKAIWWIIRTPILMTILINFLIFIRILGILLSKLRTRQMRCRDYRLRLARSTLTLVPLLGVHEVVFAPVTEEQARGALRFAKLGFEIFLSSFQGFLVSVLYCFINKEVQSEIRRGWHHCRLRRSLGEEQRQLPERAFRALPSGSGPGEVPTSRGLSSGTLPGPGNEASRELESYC
Summary of the method: (§1)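 Cells were stimulated with peptide for 30 min at 37° C, then lysed in buffer carrying cAMP-d2 and anti-cAMP Eu3+-cryptate for a competitive HTRF read after at least 60 min at room temperature. The 665/620 nm ratio was converted to nM cAMP against a standard curve.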

[2] = target: T2, hGCGR (Homo sapiens, UniProt P47871); assay: Functional cAMP formation (HTRF) in HEK-293 clonal cells expressing hGCGR, 0.1% bovine casein, without or with 1.0% human serum albumin; details: geometric mean
T2 construct: expressed in transfected cells
T2 sequence (P47871 26-477): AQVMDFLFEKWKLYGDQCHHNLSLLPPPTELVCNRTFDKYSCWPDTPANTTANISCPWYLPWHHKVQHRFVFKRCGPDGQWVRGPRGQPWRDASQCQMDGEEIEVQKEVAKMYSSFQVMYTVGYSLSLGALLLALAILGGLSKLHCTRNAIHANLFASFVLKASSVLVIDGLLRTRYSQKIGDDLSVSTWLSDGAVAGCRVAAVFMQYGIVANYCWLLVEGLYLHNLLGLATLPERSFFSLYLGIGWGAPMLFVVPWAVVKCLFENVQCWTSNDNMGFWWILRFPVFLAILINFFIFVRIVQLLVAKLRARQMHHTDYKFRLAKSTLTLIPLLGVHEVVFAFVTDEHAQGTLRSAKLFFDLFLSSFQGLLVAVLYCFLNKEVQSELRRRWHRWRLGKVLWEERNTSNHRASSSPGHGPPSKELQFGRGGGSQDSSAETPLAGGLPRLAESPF
Summary of the method: as §1

[3] = target: hGLP-1R (Homo sapiens, UniProt P43220); assay: Functional cAMP formation (HTRF) in HEK-293 clonal cells expressing hGLP-1R, 0.1% bovine casein, without or with 1.0% human serum albumin; design: expressed in transfected cells; details: for EC50: geometric mean
Sequence of hGLP-1R (P43220 24-463): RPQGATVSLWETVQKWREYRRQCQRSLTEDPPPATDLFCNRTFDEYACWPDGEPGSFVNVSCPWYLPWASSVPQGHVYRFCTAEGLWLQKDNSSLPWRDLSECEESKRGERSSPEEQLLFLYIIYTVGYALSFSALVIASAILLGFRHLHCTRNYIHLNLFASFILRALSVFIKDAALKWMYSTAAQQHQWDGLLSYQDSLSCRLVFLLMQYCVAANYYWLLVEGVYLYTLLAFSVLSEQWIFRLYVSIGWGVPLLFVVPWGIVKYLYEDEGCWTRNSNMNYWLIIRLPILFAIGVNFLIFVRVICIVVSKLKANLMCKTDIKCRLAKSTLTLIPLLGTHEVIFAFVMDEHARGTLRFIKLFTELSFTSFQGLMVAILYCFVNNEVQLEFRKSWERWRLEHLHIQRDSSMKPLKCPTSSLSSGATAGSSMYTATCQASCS
Summary of the method: as §1

[4] = cAMP, incubated at 37° C., 0.1% bovine casein (no human serum albumin), read-out: hGIPR EC50, nM (SEM, n)
[5] = cAMP, incubated at 37° C., 0.1% bovine casein (no human serum albumin), read-out: hGCGR EC50, nM (SEM, n)
[6] = cAMP, incubated at 37° C., 0.1% bovine casein (no human serum albumin), read-out: hGLP-1R EC50, nM (SEM, n)
[7] = HEK293, read-out: hGIPR Emax, % ± SEM, 0.1% bovine casein and 1.0% human serum albumin, 37° C., percent of maximal response to GIP(1-42)NH2
[8] = hGIPR EC50, nM (SEM, n), 0.1% bovine casein and 1.0% human serum albumin, 37° C.
[9] = hGIPR EC50, nM (SEM, n), cAMP, incubated at 37° C., 0.1% bovine casein (no human serum albumin)
[10] = hGCGR EC50, nM (SEM, n), 0.1% bovine casein and 1.0% human serum albumin, 37° C.
[11] = hGCGR EC50, nM (SEM, n), cAMP, incubated at 37° C., 0.1% bovine casein (no human serum albumin)
[12] = hGLP-1R EC50, nM (SEM, n), 0.1% bovine casein and 1.0% human serum albumin, 37° C.
[13] = hGLP-1R EC50, nM (SEM, n), cAMP, incubated at 37° C., 0.1% bovine casein (no human serum albumin)

## CC[C@H](C)[C@H](NC(=O)[C@H](CC(C)C)NC(=O)[C@](C)(Cc1ccc(O)cc1)NC(=O)[C@@H](CCC(=O)O)NC(=O)[C@@H](NC(=O)[C@H](Cc1ccccc1)NC(=O)[C@H](CCCCNC(=O)COCCOCCNC(=O)COCCOCCNC(=O)COCCOCCNC(=O)CC[C@H](NC(=O)CCCCCCCCCCCCC(=O)O)C(=O)O)NC(=O)C(C)(C)NC(=O)[C@H](CCC(N)=O)NC(=O)[C@H](C)NC(=O)[C@H](CCCCNC(=O)COCCOCCNC(=O)COCCOCCNC(=O)COCCOCCNC(=O)CC[C@H](NC(=O)CCCCCCCCCCCCC(=O)O)C(=O)O)NC(=O)[C@H](CCCN)NC(=O)[C@H](CC(=O)O)NC(=O)[C@H](CC(C)C)NC(=O)[C@](C)(CC(C)C)NC(=O)[C@@H](NC(=O)[C@H](CO)NC(=O)[C@H](Cc1ccncc1)NC(=O)[C@H](CC(=O)O)NC(=O)[C@H](CO)NC(=O)[C@@H](NC(=O)[C@](C)(Cc1ccccc1F)NC(=O)[C@@H](NC(=O)CNC(=O)[C@H](CCC(=O)O)NC(=O)C(C)(C)NC(=O)[C@@H](N)Cc1ccc(O)cc1)[C@@H](C)O)[C@@H](C)O)[C@@H](C)CC)[C@@H](C)CC)C(=O)N[C@@H](CCC(=O)O)C(=O)NCC(=O)NCC(=O)N1CCC[C@H]1C(=O)N[C@@H](CO)C(=O)N[C@@H](CO)C(=O)NCC(=O)N[C@@H](C)C(=O)N1CCC[C@H]1C(=O)N1CCC[C@H]1C(=O)N1CCC[C@H]1C(=O)N[C@@H](CO)C(N)=O [Example 77]
[1]; HEK293, percent of maximal response to GIP(1-42)NH2, 37° C., 0.1% bovine casein, arithmetic mean, read-out: hGIPR Emax, % ± SEM
  Emax: 94.8 ± 2.69%
[1]; [4]
  EC50: 0.0288 nM
[2]; [5]
  EC50: > 9950 nM
[3]; HEK293, percent of maximal response to GLP-1(7-36)NH2, 37° C., 0.1% bovine casein, arithmetic mean, read-out: hGLP-1R Emax, % ± SEM
  Emax: 87 ± 1.71%
[3]; [6]
  EC50: 3.03 nM

## CC[C@H](C)[C@H](NC(=O)[C@H](CC(C)C)NC(=O)[C@](C)(Cc1ccc(O)cc1)NC(=O)[C@@H](CCC(=O)O)NC(=O)[C@@H](NC(=O)[C@H](Cc1ccccc1)NC(=O)[C@H](CCCCNC(=O)COCCOCCNC(=O)COCCOCCNC(=O)CCCCCCCCCCCCC(=O)O)NC(=O)C(C)(C)NC(=O)[C@H](CCC(N)=O)NC(=O)[C@H](C)NC(=O)[C@H](CCCCNC(=O)COCCOCCNC(=O)COCCOCCNC(=O)CCCCCCCCCCCCC(=O)O)NC(=O)[C@H](CCCN)NC(=O)[C@H](CC(=O)O)NC(=O)[C@H](CC(C)C)NC(=O)[C@](C)(CC(C)C)NC(=O)[C@@H](NC(=O)[C@H](CO)NC(=O)[C@H](Cc1ccncc1)NC(=O)[C@H](CC(=O)O)NC(=O)[C@H](CO)NC(=O)[C@@H](NC(=O)[C@](C)(Cc1ccccc1F)NC(=O)[C@@H](NC(=O)CNC(=O)[C@H](CCC(=O)O)NC(=O)C(C)(C)NC(=O)[C@@H](N)Cc1ccc(O)cc1)[C@@H](C)O)[C@@H](C)O)[C@@H](C)CC)[C@@H](C)CC)C(=O)N[C@@H](CCC(=O)O)C(=O)NCC(=O)NCC(=O)N1CCC[C@H]1C(=O)N[C@@H](CO)C(=O)N[C@@H](CO)C(=O)NCC(=O)N[C@@H](C)C(=O)N1CCC[C@H]1C(=O)N1CCC[C@H]1C(=O)N1CCC[C@H]1C(=O)N[C@@H](CO)C(N)=O [Example 78]
[1]; 0.1% bovine casein and 1.0% human serum albumin, 37° C., read-out: hGIPR EC50, nM (SEM, n)
  EC50: 0.242 nM
[1]; HEK293, 0.1% bovine casein and 1.0% human serum albumin, 37° C., percent of maximal response to GIP(1-42)NH2, read-out: hGIPR Emax, % ± SEM
  Emax: 89.7 ± 2.65%
[1]; [4]
  EC50: 0.0145 nM
[2]; 0.1% bovine casein and 1.0% human serum albumin, 37° C., read-out: hGCGR EC50, nM (SEM, n)
  EC50: > 9950 nM
[2]; [5]
  EC50: > 9950 nM
[3]; 0.1% bovine casein and 1.0% human serum albumin, 37° C., read-out: hGLP-1R EC50, nM (SEM, n)
  EC50: 4.29 nM
[3]; [6]
  EC50: 0.286 nM

## CC[C@H](C)[C@H](NC(=O)[C@H](CC(C)C)NC(=O)[C@](C)(Cc1ccc(O)cc1)NC(=O)[C@H](CCCCNC(=O)COCCOCCNC(=O)CC[C@H](NC(=O)CCCCCCCCCCCCC(=O)O)C(=O)O)NC(=O)[C@@H](NC(=O)[C@H](Cc1ccccc1)NC(=O)[C@H](CCC(=O)O)NC(=O)C(C)(C)NC(=O)[C@H](CCC(N)=O)NC(=O)[C@H](C)NC(=O)[C@H](CCCCNC(=O)COCCOCCNC(=O)CC[C@H](NC(=O)CCCCCCCCCCCCC(=O)O)C(=O)O)NC(=O)[C@H](CCCN)NC(=O)[C@H](CC(=O)O)NC(=O)[C@H](CC(C)C)NC(=O)[C@](C)(CC(C)C)NC(=O)[C@@H](NC(=O)[C@H](CO)NC(=O)[C@H](Cc1ccncc1)NC(=O)[C@H](CC(=O)O)NC(=O)[C@H](CO)NC(=O)[C@@H](NC(=O)[C@](C)(Cc1ccccc1F)NC(=O)[C@@H](NC(=O)CNC(=O)[C@H](CCC(=O)O)NC(=O)C(C)(C)NC(=O)[C@@H](N)Cc1ccc(O)cc1)[C@@H](C)O)[C@@H](C)O)[C@@H](C)CC)[C@@H](C)CC)C(=O)N[C@@H](CCC(=O)O)C(=O)NCC(=O)NCC(=O)N1CCC[C@H]1C(=O)N[C@@H](CO)C(=O)N[C@@H](CO)C(=O)NCC(=O)N[C@@H](C)C(=O)N1CCC[C@H]1C(=O)N1CCC[C@H]1C(=O)N1CCC[C@H]1C(=O)N[C@@H](CO)C(N)=O [Example 79]
[1]; [7]
  Emax: 95%
[1]; [8]
  EC50: 2.31 nM
[1]; [9]
  EC50: 0.013 nM
[2]; [10]
  EC50: > 9950 nM
[2]; [11]
  EC50: > 9950 nM
[3]; [12]
  EC50: 15.1 nM
[3]; [13]
  EC50: 0.223 nM

## CC[C@H](C)[C@H](NC(=O)[C@H](CC(C)C)NC(=O)[C@](C)(Cc1ccc(O)cc1)NC(=O)[C@H](CCCCNC(=O)COCCOCCNC(=O)COCCOCCNC(=O)CCCCCCCCCCCCC(=O)O)NC(=O)[C@@H](NC(=O)[C@H](Cc1ccccc1)NC(=O)[C@H](CCC(=O)O)NC(=O)C(C)(C)NC(=O)[C@H](CCC(N)=O)NC(=O)[C@H](C)NC(=O)[C@H](CCCCNC(=O)COCCOCCNC(=O)COCCOCCNC(=O)CCCCCCCCCCCCC(=O)O)NC(=O)[C@H](CCCN)NC(=O)[C@H](CC(=O)O)NC(=O)[C@H](CC(C)C)NC(=O)[C@](C)(CC(C)C)NC(=O)[C@@H](NC(=O)[C@H](CO)NC(=O)[C@H](Cc1ccncc1)NC(=O)[C@H](CC(=O)O)NC(=O)[C@H](CO)NC(=O)[C@@H](NC(=O)[C@](C)(Cc1ccccc1F)NC(=O)[C@@H](NC(=O)CNC(=O)[C@H](CCC(=O)O)NC(=O)C(C)(C)NC(=O)[C@@H](N)Cc1ccc(O)cc1)[C@@H](C)O)[C@@H](C)O)[C@@H](C)CC)[C@@H](C)CC)C(=O)N[C@@H](CCC(=O)O)C(=O)NCC(=O)NCC(=O)N1CCC[C@H]1C(=O)N[C@@H](CO)C(=O)N[C@@H](CO)C(=O)NCC(=O)N[C@@H](C)C(=O)N1CCC[C@H]1C(=O)N1CCC[C@H]1C(=O)N1CCC[C@H]1C(=O)N[C@@H](CO)C(N)=O [Example 81]
[1]; [7]
  Emax: 97.4%
[1]; [8]
  EC50: 0.531 nM
[1]; [9]
  EC50: 0.0114 nM
[2]; [10]
  EC50: > 9950 nM
[2]; [11]
  EC50: > 9950 nM
[3]; [12]
  EC50: 3.47 nM
[3]; [13]
  EC50: 0.176 nM

## CC[C@H](C)[C@H](NC(=O)[C@H](CC(C)C)NC(=O)[C@](C)(Cc1ccc(O)cc1)NC(=O)[C@H](CCCCNC(=O)COCCOCCNC(=O)COCCOCCNC(=O)CC[C@H](NC(=O)CCCCCCCCCCCCC(=O)O)C(=O)O)NC(=O)[C@@H](NC(=O)[C@](C)(Cc1ccccc1)NC(=O)[C@H](CCC(=O)O)NC(=O)C(C)(C)NC(=O)[C@H](CCC(N)=O)NC(=O)[C@H](C)NC(=O)[C@H](CCCCNC(=O)COCCOCCNC(=O)COCCOCCNC(=O)CC[C@H](NC(=O)CCCCCCCCCCCCC(=O)O)C(=O)O)NC(=O)[C@H](CCCN)NC(=O)[C@H](CC(=O)O)NC(=O)[C@H](CC(C)C)NC(=O)[C@](C)(CC(C)C)NC(=O)[C@@H](NC(=O)[C@H](CO)NC(=O)[C@H](Cc1ccncc1)NC(=O)[C@H](CC(=O)O)NC(=O)[C@H](CO)NC(=O)[C@@H](NC(=O)[C@](C)(Cc1ccccc1F)NC(=O)[C@@H](NC(=O)CNC(=O)[C@H](CCC(=O)O)NC(=O)C(C)(C)NC(=O)[C@@H](N)Cc1ccc(O)cc1)[C@@H](C)O)[C@@H](C)O)[C@@H](C)CC)[C@@H](C)CC)C(=O)N[C@@H](CCC(=O)O)C(=O)NCC(=O)NCC(=O)N1CCC[C@H]1C(=O)N[C@@H](CO)C(=O)N[C@@H](CO)C(=O)NCC(=O)N[C@@H](C)C(=O)N1CCC[C@H]1C(=O)N1CCC[C@H]1C(=O)N1CCC[C@H]1C(=O)N[C@@H](CO)C(N)=O [Example 82]
[1]; HEK293, read-out: hGIPR Emax, % ± SEM, percent of maximal response to GIP(1-42)NH2, 37° C., 0.1% bovine casein, arithmetic mean
  Emax: 81.4 ± 6.09%
[1]; [9]
  EC50: 0.0206 nM
[2]; [11]
  EC50: > 9950 nM
[3]; [13]
  EC50: 4.78 nM
